Measured values as given in patent US9493663B2, “Photopolymerizable inkjet ink, ink cartridge, and printer” (RICOH COMPANY, LTD., priority 2011, dated 2016).

Assay: skin sensitization test (LLNA, Local Lymph Node Assay, OECD test guideline 429), Stimulation Index
Type: in vivo
Details: SI less than 3 judged negative
From the text: As described in literatures (for example, “Functional Material” (Kino Zairyou) 2005, September, Vol. 25, No. 9, p. 55), the compound having a Stimulation Index (SI value) of less than 3, where the Stimulation Index indicates the extent of skin sensitization, is judged as being negative for skin sensitization. […] The lower SI value means lower skin sensitization. […] The SI value of the monomer or the oligomer used is preferably 2 or lower, more preferably 1.6 or lower.
The description “negative” or “none” is equivalent to the SI value of less than 3.

Row | Molecule | SI value (Stimulation Index)
1 | C=C(C)C(=O)OCC(C)(C)COC(=O)C(=C)C [Example A1, Neopentyl glycol dimethacrylate] | 2.0
2 | C=C(C)C(=O)OCC(CC)(COC(=O)C(=C)C)COC(=O)C(=C)C [Example A5, Trimethylolpropane trimethacrylate] | 1.9
3 | C=CC(=O)OCCCCCCCCCCCCCCCCCC [Example A12, Stearyl acrylate] | 2.7
4 | C=C(C)C(=O)OCCCCOC(=O)C(=C)C [Example A13, 1,4-Butanediol dimethacrylate] | 2.6
5 | C=CC(=O)OCCCCCCCCCCCCCCCC(C)C [Example A19, Isostearyl acrylate] | 1.4
6 | C=C(C)C(=O)OCCCCCCCCCCCCCCCCCC [Example A21, Stearyl methacrylate] | 1.2
7 | Polyethoxylated tetramethylolmethane tetraacrylate [Example A9] | 1.7
8 | Polyethylene glycol dimethacrylate represented by General Formula (1) (n is nearly equal to 2) [Example A23] | 1.1
9 | Polyethylene glycol dimethacrylate represented by General Formula (1) (n is nearly equal to 14) [Example A3] | 1.6
10 | Polyethylene glycol dimethacrylate represented by the following General Formula (1) (n is nearly equal to 9) [Example A2] | 1.3
11 | Polypropylene glycol diacrylate [Example A14, Polypropylene glycol diacrylate [CH2═CH—CO—(OC3H6)n—OCOCH═CH2 (n is nearly equal to 12)]] | 1.5
12 | Tricyclodecanedimethanol dimethacrylate [Example A6] | 1.3
13 | γ-Butyrolactone methacrylate [Example A4] | 2.1

Assay: not given
Details: MSDS; equivalent to SI value of less than 3; cited from earlier work

Row | Molecule | skin sensitization evaluated in MSDS
14 | Caprolactone-modified dipentaerythritol hexaacrylate [Example A7] | negative

Same assay, conditions: literature; equivalent to SI value of less than 3; cited from earlier work

Row | Molecule | skin sensitization evaluated in literature
15 | C=C(C)C(=O)OC(C)(C)C [Example A15, t-Butyl methacrylate] | negative
16 | C=C(C)C(=O)OCCCCC [Example A16, n-Pentyl methacrylate] | negative
17 | C=C(C)C(=O)OCCCCCC [Example A17, n-Hexyl methacrylate] | negative
